Assay results as given in paper PMC10638507 (Acta Pharmaceutica Sinica. B, 2023).

What was measured:
Format in all cases: biochemical, Paris polyphylla var. yunnanensis
[1] = tested on: UGT80A41; assay: initial rates of glucoside formation, UPLC-MS/MS, Michaelis-Menten fit; conditions: read-out: apparent KM; 2 mmol/L UDP-glucose, 50 mmol/L Tris-HCl pH 8.0, 37 °C, 30 min
[2] = tested on: UGT80A40; assay: as above; conditions: read-out: apparent KM; 2 mmol/L UDP-glucose, 50 mmol/L Tris-HCl pH 8.0, 37 °C, 30 min
[3] = tested on: UGT73CE1; assay: initial rates of rhamnoside formation, UPLC-MS/MS, Michaelis-Menten fit; conditions: read-out: apparent KM; 1.5 mmol/L UDP-rhamnose, 50 mmol/L Tris-HCl pH 8.0, 37 °C, 30 min

Row | Km [1] [µM] | Km [2] [µM] | Km [3] [µM] | Structure (SMILES)
1 | 5.9 ± 0.5 | 6.1 ± 0.7 | – | C[C@@H]1CC[C@@]2(OC1)O[C@H]1C[C@H]3[C@@H]4CC=C5C[C@@H](O)CC[C@]5(C)[C@H]4CC[C@]3(C)[C@H]1[C@@H]2C [compound 1, diosgenin]
2 | – | – | 7.1 ± 2.1 | C[C@@H]1CC[C@@]2(OC1)O[C@H]1C[C@H]3[C@@H]4CC=C5C[C@@H](O[C@@H]6O[C@H](CO)[C@@H](O)[C@H](O)[C@H]6O)CC[C@]5(C)[C@H]4CC[C@]3(C)[C@H]1[C@@H]2C [compound 3, trillin]
